These results are taken from patent US9340768B2, “Transformation of glycerol and cellulosic materials into high energy fuels” (THE TEXAS A&M UNIVERSITY SYSTEM, priority 2008, dated 2016).

“Also recorded” adds a separate entry of the source.

Holding throughout (assay type): cell-based, Debaryomyces hansenii
Data set [1] relates to D. hansenii. The data set is described as follows: Growth and oleagenicity of D. hansenii on pure carbon sources (Nile red plate staining). As to conditions: for Growth: carbon source at 30 g/L in minimal media; for Oleagenicity: carbon source at 30 g/L, Nile Red fluorescence. The method, then:
D. hansenii (Dh) and S. cerevisiae (Sc) grown on minimal media containing no carbon source, 30 g/L of glucose, arabinose, xylose, carboxymethylcellulose or cellobiose. D. hansenii grew well on media containing glucose, arabinose and cellobiose. Lipid accumulation was indicated by Nile Red fluorescence in D. hansenii grown on glucose but not on cellobiose.
Culture media and cultivation conditions. For liquid culture, single colony of D. hansenii or S. cerevisiae were pre-cultured in 2 mL YPD or other desired media (see below) and incubated at 30° C. for 24 hr. Cells were counted using a hemacytometer and spun down at 3000 rpm for 15 minutes. Cells at a concentration of 1×10^6/mL were used to inoculate the desired media with 1% of the total volume. Medium A with limited nitrogen source (glucose 30 g/L, yeast extract 1.5 g/L, NH4Cl 0.1 g/L, KH2PO4 7.0 g/L, Na2HPO4 1.983 g/L, MgSO4.7H2O 1.5 g/L, FeCl3.6H2O 0.08 g/L, ZnSO4.7H2O 0.01 g/L, CaCl2.2H2O 0.1 g/L, MnSO4.H2O 0.07 mg/L, CuSO4.5H2O 0.1 mg/L, Co(NO3)2.6H2O 0.1 mg/L, pH 5.5; see Kimura et al., 2004) was used to support the growth of D. hansenii and induce cellular lipid accumulation. Medium A with sufficient nitrogen supply (NH4Cl 5 g/L) was used to support growth without the induction of lipid accumulation. To test the growth of D. hansenii on carbon sources other than glucose, glucose was dropped out from medium A and replaced with desired carbon sources at the same concentration except for glycerol, which was at 10% or 20% (v/v). […] For making media containing sorghum juice, raw juice was filter sterilized and added in the media at various concentrations of 5%, 10%, 25%, and 50% (v/v). Crude glycerol (Future Fuel Chemical Company, Arkansas, USA) contained 6% water, 88% glycerol, 2.564% ash by weight.
Nile red plate staining assay. Nile red (9-diethylamino-5H-benzo[α]phenoxazine-5-one) obtained from Sigma-Aldrich (Missouri, USA) was dissolved in Dimethyl sulfoxide (DMSO) at a concentration of 0.5 mg/mL and supplemented in medium A at a final concentration of 0.5 μg/mL. For direct observation of cellular lipid accumulation, D. hansenii grown on solid medium A with Nile red were observed using a UV light source (312 nm) as described (Spiekemann et al., 1999).

Data set [2] has as its system D. hansenii. The data set is described as follows: OmniLog Phenotype Microarray, osmolytes (PM9). The settings on record: 30° C., OMNILOG PM. The method, then:
PM assays. Inoculums for PM panels were prepared according to the manufacturer's protocols with modifications; Procedures for S. cerevisiae and other Fungi version 8 Feb. 2006 (Biolog) was used to prepare inoculums for PM01, PM02, and PM09, while version 29 Apr. 2008 (Biolog) was used for PM10. In brief, D. hansenii were streaked onto defined Medium A (Table 6) and cultivated at 30° C. for 48 hours. Cells were redistributed onto fresh agar using a sterile swab and incubated for an additional 4 hours at 30° C. to ensure active growth and avoid late-growth clumping (Oliver R Homann, Houjian Cai, 2005). (Kimura et al., 2004)
Cells were then transferred into the appropriate PM inoculation fluid (Table 7) and re-suspended to 62% transmittance (approximately 200 cells per 100 μL assay). PM1 and PM2 measure carbon source utilization and/or sensitivity; as such, the inoculation fluid lacks a defined carbon source (e.g., glycerol or glucose). In contrast, the inoculating fluids for PM9 (osmolytes) and PM10 (pH) required the inclusion of a carbon source (Table 7); in this case glucose was supplemented to 100 mM.
D. hansenii-containing inoculation fluid was inoculated into PM panels and incubated at 30° C. for 6.5 days. Color intensity for each well was measured every 15 minutes. Exemplary time course (kinetic) results (means) from representative PM assays are plotted.
In order to simplify the comparison of individual assay conditions, the full time-course kinetic plots were converted into a single unitless numerical value, which is weighted to more greatly value latter time points (e.g., endpoints), as described by Homann et al. (2005). Signal value=[(average signal+maximum signal)/2−average signal over first 2 h]; Represent the full time course by a single number; Weight the value towards latter time points; Subtract the “baseline” signal level for each well (Oliver R Homann, 2005) and Replicate PM assay runs were conducted, and the average of the signal values was used.

Data set [3] relates to D. hansenii. The data set is described as follows: Microscopic quantification of secreted (extracellular) lipid bodies, Nile red. The settings on record: 100 nM wortmannin, 144 hr post inoculation; untreated control more than 80 per 100 cells. The method, then:
(§1) Fluorescent microscopy. For Nile red stained cells or cultures, microscopic photographs were taken with an Olympus BX51 microscope (Olympus America, New York, USA) equipped with an Olympus DP70 camera using a 530-550 nm excitation filter, a 570 nm diachronic mirror and a 590 nm emission filter with a 60× objective lens. For microscopic quantification of secreted lipid bodies, 50 μL of the cell suspension in media A containing 0.2% agarose and Nile red, with or without the addition of 100 nM wortmannin, were inoculated in triplicate in microscopic frames that allow the agarose-based matrix to be sealed between two pieces of cover glasses. Slides were incubated in 90% moisture at 30° C. At 0, 48, 72, 96, 120, 144 hr post inoculation, the number of the cells and extracellular lipid bodies (stained with Nile red) were quantified. In parallel, the cells were stained with FUN1 (Invitrogen) for viability determination.

Data set [4] relates to D. hansenii. The data set is described as follows: Cell viability by FUN1 stain and microscopic quantification. As to conditions: 100 nM wortmannin, FUN1 stain. The procedure: as §1

Consider `O=C[C@@H](O)[C@H](O)[C@H](O)CO` [Arabinose], for which, in the data set with D. hansenii [1], the Growth entry was “grew well” and the Oleagenicity entry is “No”. Turning to `O=C[C@H](O)[C@@H](O)[C@H](O[C@@H]1O[C@H](CO)[C@@H](O)[C@H](O)[C@H]1O)[C@H](O)CO` [Cellobiose], in the data set on D. hansenii [1], the Growth result is given as “grew well” and the Oleagenicity entry was “No”. On to `[Cl-].[K+]` [KCl], for which the “level of salt solution tolerated without severe compromise in growth” value with D. hansenii [2] was no more than 6%. Turning to `O=S(=O)([O-])[O-].[Na+].[Na+]` [Na2SO4], the “level of salt solution tolerated without severe compromise in growth” value in the data set with D. hansenii [2] is reported as no more than 5%. As to `[Cl-].[Na+]` [NaCl], in the data set with D. hansenii [2], the “level of salt solution tolerated without severe compromise in growth” value is on record as “up to 6.5%”. Regarding `O=C[C@H](O)[C@@H](O)[C@H](O)CO` [Xylose], in the data set with D. hansenii [1], the Oleagenicity entry was “No”.

As for `COC[C@H]1OC(=O)c2coc3c2[C@@]1(C)C1=C(C3=O)[C@@H]2CCC(=O)[C@@]2(C)C[C@H]1OC(C)=O` [wortmannin], the “lipid bodies released from D. hansenii cells” value in the data set with D. hansenii [3] is “lower than 10 per 100 cells”. Moreover, the cell viability result with D. hansenii [4] is recorded as “remained unaffected; also recorded: not affected”.
